From patent publication US20040110821A1, “GAL3 receptor antagonists for the treatment of affective disorders” (priority 2002, published 2004) come the findings set out here.

Where two headings read alike, the source gives them in different places. Marks after values point to notes of the source that are not given here.

Assay [1] concerns Male albino Sprague-Dawley rats. The assay can be described thus: Rat Social Interaction Test (SIT). The format is in vivo. On the procedure: Rats were allowed to acclimate to the animal care facility for 5 days and were housed singly for 5 days prior to testing. Animals were handled for 5 minutes per day. The design and procedure for the Social Interaction Test was carried out as previously described by Kennett, et al. (1997). On the test day, weight matched pairs of rats (±5%), unfamiliar to each other, were given identical treatments and returned to their home cages. Animals were randomly divided into 5 treatment groups, with 5 pairs per group, and were given one of the following i.p. treatments: Example 92 (10, 30 or 100 mg/kg), vehicle (1 ml/kg) or chlordiazepoxide (5 mg/kg). Dosing was 1 hour prior to testing. Rats were subsequently placed in a white perspex test box or arena (54×37×26 cm), whose floor was divided up into 24 equal squares, for 15 minutes. An air conditioner was used to generate background noise and to keep the room at approximately 74° F. All sessions were videotaped using a JVC camcorder (model GR-SZ1, Elmwood Park, N.J.) with either TDK (HG ultimate brand) or Sony 30 minute videocassettes. All sessions were conducted between 1:00-4:30 P.M. Active social interaction, defined as grooming, sniffing, biting, boxing, wrestling, following and crawling over or under, was scored using a stopwatch (Sportsline model no. 226, 1/100 sec. discriminability). The number of episodes of rearing (animal completely raises up its body on its hind limbs), grooming (licking, biting, scratching of body), and face washing (i.e. hands are moved repeatedly over face), and number of squares crossed were scored. Passive social interaction (animals are lying beside or on top of each other) was not scored. All behaviors were assessed later by an observer who was blind as to the treatment of each pair. At the end.of each test, the box was thoroughly wiped with moistened paper towels.
Male albino Sprague-Dawley rats (Taconic Farms, N.Y.) were housed in pairs under a 12 hr light dark cycle (lights on at 0700 hrs.) with free access to food and water.
Example 92 was dissolved in 100% DMSO (Sigma Chemical Co., St. Louis, Mo.). Chlordiazepoxide (purchased from Sigma Chemical Co., St. Louis, Mo.) was dissolved in double distilled water. The vehicle consisted of 50% DMSO (v/v). All drug solutions were made up 10 minutes prior to injection and the solutions were discarded.
Example 34 was dissolved in 5% lactic acid, v/v. The vehicle consisted of 100% dimethylacetamide (DMA) and this was used to make up all drug solutions. All drug solutions were made up fresh each day and any unused solutions were discarded at the end of the test day. The volume of drug solution administered was 1 ml/kg.
The social interaction data (time interacting, rearing and squares crossed) were subjected to a randomized, one-way ANOVA and post hoc tests conducted using the Student-Newman-Keuls test. The data were subjected to a test of normality (Shapiro-Wilk test). The data were analyzed using the GBSTAT program, version 6.5 (Dynamics Microsystems, Inc., Silver Spring, Md., 1997). All data are presented as means ±S.E.M.

Assay [2] concerns the target T1, human GAL1 receptor (Homo sapiens, UniProt P47211).
T1 construct: expressed in transfected cells
T1 sequence (P47211 1-349): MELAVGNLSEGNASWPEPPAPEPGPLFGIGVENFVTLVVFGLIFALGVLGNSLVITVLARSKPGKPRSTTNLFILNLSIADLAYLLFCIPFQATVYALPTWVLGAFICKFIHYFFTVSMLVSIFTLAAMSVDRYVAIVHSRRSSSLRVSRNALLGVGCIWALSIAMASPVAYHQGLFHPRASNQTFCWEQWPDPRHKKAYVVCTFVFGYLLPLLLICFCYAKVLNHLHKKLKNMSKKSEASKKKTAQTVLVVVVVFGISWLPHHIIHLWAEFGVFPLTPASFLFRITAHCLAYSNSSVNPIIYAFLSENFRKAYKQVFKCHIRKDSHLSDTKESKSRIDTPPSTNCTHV
Put plainly: Radioligand binding at cloned human GAL1 receptor. The note with it: pyrimidines, Tables 1-3, read-out: Ki (nM) GalR1. On the procedure:
(§1) The present invention provides for a method of determining the binding affinity of a GAL3 antagonist, wherein the GAL3 antagonist is dissolved in a “suitable solvent”. A “suitable solvent” means one which permits the measurement of binding affinity of the GAL3 antagonist to the human GAL3 receptor at concentrations less than 1 μM, preferably less than 100 nM. Examples of solvents include, but are not limited to, DMSO, ethanol, N,N-dimethylacetamide, or water. For indolones, the preferred solvent is 3% DMSO (final concentration in the assay). For pyrimidines, the preferred solvent is 1% ethanol/0.09% polypuronic acid F-127 (final concentration in the assay). For any other type of compounds, the preferred solvent is the solvent which permits the measurement of binding affinity of a GAL3 antagonist at the lowest concentration. Once a suitable solvent is ascertained for the binding assay of the human GAL3 receptor, the same solvent is used in assays to determine the binding affinity for instance, at the GAL1 receptor.
(§2) The binding properties of the pyrimidines of the present invention were evaluated at the cloned human galanin receptors, GAL1, GAL2, and GAL3, using protocols described herein.
(§3) The binding properties of the indolones of the present invention were evaluated at the cloned human galanin receptors, GAL1, GAL2, and GAL3, using protocols described herein.
(§4) LM(tk-) cells were stably transfected with the human GAL1 or GAL3 receptor. CHO cells were stably transfected with the human GAL2 receptor.
(§5) cDNAs for the human and rat GAL1, and human and rat GAL3 receptors were transfected with a G-418 resistant gene into the mouse fibroblast LM(tk-) cell line by a calcium phosphate transfection method (Cullen, 1967). Stably transfected cells were selected with G-418. Human and rat GAL2 receptors were similarly transfected into CHO cells.
(§6) Membranes were harvested from stably transfected LM(tk-) cells. Adherent cells were washed twice in ice-cold phosphate buffered saline (138 mM NaCl, 8.1 mM Na2HPO4, 2.5 mM KCl, 1.2 mM KH2PO4, 0.9 mM CaCl2, 0.5 mM MgCl2, pH 7.4) and lysed by sonication in ice-cold sonication buffer (20 mM Tris-HCl, 5 mM EDTA, pH 7.7). Large particles and debris were cleared by low speed centrifugation (200×g, 5 min, 4° C.). Membranes were collected from the supernatant fraction by centrifugation (32,000×g, 18 min, 4° C.), washed with ice-cold hypotonic buffer, and collected again by centrifugation (32,000×g, 18 min, 4° C.). The final membrane pellet was resuspended by sonication into a small volume of ice-cold binding buffer (−1 ml for every 5 plates: 10 mM NaCl, 20 mM HEPES, 0.22 mM KH2PO4, 1.26 mM CaCl2, 0.81 mM MgSO4, pH 7.4). Protein concentration was measured by the Bradford method (Bradford, 1976) using Bio-Rad Reagent, with bovine serum albumin as a standard. Membranes were held on ice for up to one hour and used fresh, or flash frozen and stored in liquid nitrogen. Membranes were prepared similarly from CHO cells.
(§7) Galanin Receptors: Binding assays were performed according to the following published methods: human GAL3 (PCT International Publication No. WO 98/15570), human GAL1 (PCT International Publication No. WO 95/2260) human GAL2 (PCT International Publication No. WO 97/26853).
(§8) Binding data were analyzed using nonlinear regression and statistical techniques available in the GraphPAD Prism package (San Diego, Calif.). Enzymatic assay data were derived from a standard curve of reference compound data.

The target of assay [3] is T2, human GAL2 receptor (Homo sapiens, UniProt O43603).
T2 construct: expressed in transfected cells
T2 sequence (O43603 1-387): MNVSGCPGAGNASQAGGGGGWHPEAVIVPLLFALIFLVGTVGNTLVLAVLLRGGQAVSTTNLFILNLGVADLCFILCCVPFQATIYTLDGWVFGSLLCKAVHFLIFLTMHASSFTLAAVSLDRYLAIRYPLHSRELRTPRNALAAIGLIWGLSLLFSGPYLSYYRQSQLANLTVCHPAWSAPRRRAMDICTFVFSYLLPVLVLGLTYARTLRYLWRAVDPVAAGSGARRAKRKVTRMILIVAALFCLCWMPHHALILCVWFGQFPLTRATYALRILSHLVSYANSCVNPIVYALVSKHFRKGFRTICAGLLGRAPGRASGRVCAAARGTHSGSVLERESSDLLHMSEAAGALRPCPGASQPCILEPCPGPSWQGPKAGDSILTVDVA
The assay can be described thus: Radioligand binding at cloned human GAL2 receptor. The note with it: pyrimidines, Tables 1-3, read-out: Ki (nM) GalR2. On the procedure:
as §1, §2, §3, §4, §5, §6, §7, §8

The target of assay [4] is T3, human GAL3 receptor (Homo sapiens, UniProt O60755).
T3 construct: expressed in transfected cells
T3 sequence (O60755 1-368): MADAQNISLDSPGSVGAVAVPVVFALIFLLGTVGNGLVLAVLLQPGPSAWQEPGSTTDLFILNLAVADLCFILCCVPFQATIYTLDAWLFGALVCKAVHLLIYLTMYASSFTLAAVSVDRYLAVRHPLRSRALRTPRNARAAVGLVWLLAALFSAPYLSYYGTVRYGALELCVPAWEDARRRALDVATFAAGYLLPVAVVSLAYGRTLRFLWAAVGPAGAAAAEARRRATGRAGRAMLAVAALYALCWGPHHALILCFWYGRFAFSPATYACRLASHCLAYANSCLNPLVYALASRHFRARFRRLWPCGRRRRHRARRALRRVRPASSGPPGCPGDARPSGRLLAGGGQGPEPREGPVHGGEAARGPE
Put plainly: Radioligand binding at cloned human GAL3 receptor. The note with it: cloned human GAL3 receptor. On the procedure:
as §1, §2, §3, §4, §5, §6, §7, §8

Setting [5] is: pyrimidines, Tables 1-3, read-out: Ki (nM) GalR3.
[6] abbreviates: indolones, Table 4a, read-out: Ki (nM) Gal3.
The mark [7] stands for this setting: pyrimidines, Table 3a, read-out: Ki (nM) Gal3.

For the molecule `CNC1=Nc2ccc(Cl)cc2C(c2ccccc2)=[N+]([O-])C1` [Chlordiazepoxide, chlordiazepoxide, reference compound], the “Social Interaction (sec)” value is recorded as 188 ± 15^b sec in assay [1] (5 mg/kg i.p., 1 hour before 15 min test, unfamiliar rats) and 122 ± 18^$ sec in assay [1] (5 mg/kg p.o., one hour before test, unfamiliar cage mates in a familiar arena).

By Ki is commonly meant the dissociation constant of the complex between target and ligand, obtained from inhibition or displacement. Turning to `CN(CCc1c[nH]c2ccccc12)c1nc(NCCc2ccccc2)cc(N2CCCCC2)n1` [Example 12], the Ki in assay [2] was above 5000 nM; in assay [3], 2000 nM; in assay [4] (setting [5]), 322 nM.

For `C[C@H]1CC2CC([C@@H]1Nc1cc(N(C)C)nc(Nc3ccccc3)n1)C2(C)C` (stereo partly drawn) [Example 71], the Ki in assay [3] is 944 nM; in assay [4] (setting [5]), 72 nM.

For `CN1C(=O)c2ccc(/N=C3\C(=O)N(c4ccccc4)c4ccccc43)cc2C1=O` [Example 110, 2-METHYL-5-[(2-OXO-1-PHENYL-1,2-DIHYDRO-3H-INDOL-3-YLIDENE)AMINO]-2H—ISOINDOLE-1,3(2H)-DIONE], the Ki in assay [4] (setting [6]) is 138 nM.

On to `CN(C)c1cc(NC23CC4CC(CC2C4)C3)nc(N2CCN(Cc3ccccc3)CC2)n1` [Example 137], for which the Ki in assay [4] (setting [7]) turned out to be 124 nM.

Regarding `CN(C)c1cc(N[C@@H]2C[C@H]3CC[C@]2(C)C3(C)C)nc(N2CCN(Cc3ccccc3)CC2)n1` [Example 153], the Ki in assay [4] (setting [7]) is 55 nM.

Turning to `CN(C)c1cc(Nc2ccccc2Cl)nc(N2CCN(c3ccccn3)CC2)n1` [Example 195], the inhibition constant (Ki) in assay [4] (setting [7]) was determined as 388 nM.

For the molecule `CN(C)c1cc(Nc2ccc(Cl)cc2C(F)(F)F)nc(N2CCN(Cc3ccccc3)CC2)n1` [Example 239], the Ki in assay [4] (setting [7]) came out at 59 nM.

`O=C1/C(=N\c2ccc(Oc3ccccc3)cc2)c2ccccc2N1c1ccsc1` [Example 268, 3Z)-3-[(4-PHENOXYPHENYL)IMINO]-1-(3-THIENYL)-1,3-DIHYDRO-2H-INDOL-2-ONE]: the Ki in assay [4] (setting [6]) came out at 57 nM.

Consider `Cc1ccc(/N=C2\C(=O)N(c3ccccc3)c3ccccc32)c(Cl)c1` [Example 286], for which the Ki in assay [4] (setting [6]) was found to be 38 nM.

Take `O=C1/C(=N\c2ccc(-c3cccc(C(F)(F)F)c3)cc2)c2ccccc2N1c1ccccc1` [Example 305, (3Z)-1-PHENYL-3-{[3′-(TRIFLUOROMETHYL)[1,1′-BIPHENYL]-4-YL]IMINO}-1,3-DIHYDRO-2H-INDOL-2-ONE]: the inhibitory constant (Ki) in assay [4] (setting [6]) was 638 nM.

For the molecule “N^2-[2-(1H-INDOL-3-YL)ETHYL]-N^2,N^4,N^4-TRIMETHYL-(2-NAPHTHYL)-6-(1-PIPERIDINYL)-2,4,6-PYRIMIDINETRIAMINE [Example 79]”, the Ki in assay [2] was 3800 nM; in assay [3], 1660 nM; in assay [4] (setting [5]), 190 nM.
